Patent US7589185B2, “Nucleotide sequences and protein(s) encoded by such nucleotides for modulation of apoptosis” (Universita' degli Studi di Catanzaro “Magna Graecia”, priority 2001, dated 2009)

What was measured:
[1] = tested on: Air protein; assay: Intracellular expression of Air protein in primary B-CLL cells, immunofluorescence flow cytometry; type: cell-based, human
From the text: Presence of the Protein in primary ex vivo cells—We investigated whether our protein was present in primary ex vivo cells. (Procedures and conditions for isolation and culturing of primary cells are described in ref. 8-10). To this purpose, we first analysed three samples of B chronic lymphocytic leukemia (B-CLL) cells, since these cells can be considered a primary counterpart of the cell line that we initially studied. To detect the protein, we perform intracellular immuno-fluorescence experiments. 1−2×10^6 cells were fixed and permeabilised with 250 microl of Cytofix/Cytoperm (Pharmingen) solution, then incubated with the specific anti-Air rabbit polyclonal or a control rabbit antibody, followed by washing with Perm/Wash (Pharmingen) and a second incubation with fluorescein isothiocyanate (FITC)-conjugated goat anti-rabbit antibody. Then the cells were analysed with a FACScan (Becton Dickinson) flow cytometer. These experiments allowed to detect the presence of the protein in the three analysed B-CLL samples (FIGS. 7, 8 and 9).
FIG. 7—Intracellular expression of Air protein in cells from a patient affected by B-CLL. 2×10^6/ml cells obtained from patient's peripheral blood by centrifugation through Ficoll-Hypaque were incubated 24 h at 37° C. in a 5% CO2 atmosphere in the absence or presence of 2 mM DEM, fixed and permeabilised with 250 microl of Cytofix/Cytoperm (Pharmingen) solution. The cells were then incubated with the specific anti-Air rabbit polyclonal or a control rabbit antibody, followed by washing with Perm/Wash (Pharmingen) and a second incubation with fluorescein isothiocyanate (FITC)-conjugated goat anti-rabbit antibody. Then the cells were analysed with a FACScan (Becton Dickinson) flow cytometer. A panel: unstimulated cells. B panel: DEM-stimulated cells. Protein expression is detected in the 33.8% of the cells in basal conditions and in the 47.6% of the cells incubated with DEM.
FIG. 8—Intracellular expression of Air protein in cells from a patient affected by B-CLL. 2×10^6/ml cells obtained from patient's peripheral blood by centrifugation through Ficoll-Hypaque were incubated 24 h at 37° C. in a 5% CO2 atmosphere in the absence or presence of 2 mM DEM or 20 microM 2-Methoxymethylestradiol (2-ME), fixed and permeabilised with 250 microl of Cytofix/Cytoperm (Pharmingen) solution. The cells were then incubated with the specific anti-Air rabbit polyclonal or a control rabbit antibody, followed by washing with Perm/Wash (Pharmingen) and a second incubation with fluoresceinisothiocyanate (FITC)-conjugated goat anti-rabbit antibody. Then the cells were analysed with a FACScan (Becton Dickinson) flow cytometer. A panel: unstimulated cells. B panel: DEM-stimulated cells. C panel: cells stimulated with the drug 2-Methoxymethylestradiol (2-ME). Protein expression is detected in the 17.3% of the cells in basal conditions, in the 55.5% of DEM-stimulated cells and in the 53.1% of 2-ME-stimulated cells.
FIG. 9—Intracellular expression of Air protein in a patient affected by B-CLL. […] Then the cells were analysed with a FACScan (Becton Dickinson) flow cytometer. […] Protein expression is detected in the 27.2% of the cells in basal conditions, in the 28.3% of DEM-stimulated cells and in the 23.1% of 2-ME-stimulated cells.

[2] = tested on: SH-SY5Y neuroblastoma cells; assay: Apoptosis of SH-SY5Y neuroblastoma cells induced by DEM, propidium iodide flow cytometry; type: cell-based, human; conditions: 2 or 6 mM DEM, oligonucleotides 7 microM, 12 or 16 h (FIGS. 3-6)

What does the source list for `COCc1cc2c(cc1O)CC[C@@H]1[C@@H]2CC[C@]2(C)[C@@H](O)CC[C@@H]12` [2-ME, 2-Methoxymethylestradiol]?
cells in which Air protein expression is detected ([1]; B-CLL patient of FIG. 8, 20 microM 2-ME, 24 h (basal 17.3%)): 53.1%; cells in which Air protein expression is detected ([1]; B-CLL patient of FIG. 9, 20 microM 2-ME, 24 h (basal 27.2%)): 23.1%

Which modulation of apoptosis [2] does the source give for “SEQ ID NO 6: antisense phosphorothioate oligonucleotide directed at blocking Air synthesis (CTTAGTCTTATACATTTTTTTAAAATC; all phosphorothioate, sugars by position and methylation of C not given here)” here?
The modulation of apoptosis was “blocking it”.

How did the modulation of apoptosis [2] turn out when “SEQ ID NO 8: antisense phosphorothioate oligonucleotide directed at blocking Air synthesis (CTTTCTATCTTCATTTTATTTTTCC; all phosphorothioate, sugars by position and methylation of C not given here)” was run?
The modulation of apoptosis was “blocking it”.

How did the “cells in which Air protein expression is detected” value (from here on “cells”) ([1]; B-CLL patient of FIG. 7, 2 mM DEM, 24 h (basal 33.8%)) turn out when `CCOC(=O)/C=C\C(=O)OCC` [DEM, diethylmaleate] was run?
The value was 47.6%.

And the “cells” value ([1]; B-CLL patient of FIG. 8, 2 mM DEM, 24 h (basal 17.3%))?
The value was 55.5%.

And the “cells” value ([1]; B-CLL patient of FIG. 9, 2 mM DEM, 24 h (basal 27.2%))?
The value was 28.3%.

With “SEQ ID NO 7: antisense phosphorothioate oligonucleotide directed at blocking Air synthesis (ATCTTAGTCTTATACATTTTTTTAAA; all phosphorothioate, sugars by position and methylation of C not given here)” as the compound, how does the modulation of apoptosis [2] read?
The modulation of apoptosis was “blocking it”.
